Results reported in patent publication US9060943B2, “Compositions comprising trans-tert-butyl cyclohexanol as skin irritation-reducing agent” (SYMRISE AG, priority 2009, dated 2015).

Assays:
recombinant human TRPV1 = target: T1, recombinant human TRPV1 (Homo sapiens, UniProt Q8NER1); assay: Calcium assay (Fluo-4) for TRPV1 antagonism in HEK293 cells in the presence of capsaicin; format: cell-based; details: for TRPV1 antagonism (result in words), pre-incubation mode: isomer applied 10 min before addition of capsaicin; for TRPV1 antagonism (result in words): parallel application with capsaicin as agonist
T1 construct: expressed in transfected cells
T1 sequence (Q8NER1 whole entry): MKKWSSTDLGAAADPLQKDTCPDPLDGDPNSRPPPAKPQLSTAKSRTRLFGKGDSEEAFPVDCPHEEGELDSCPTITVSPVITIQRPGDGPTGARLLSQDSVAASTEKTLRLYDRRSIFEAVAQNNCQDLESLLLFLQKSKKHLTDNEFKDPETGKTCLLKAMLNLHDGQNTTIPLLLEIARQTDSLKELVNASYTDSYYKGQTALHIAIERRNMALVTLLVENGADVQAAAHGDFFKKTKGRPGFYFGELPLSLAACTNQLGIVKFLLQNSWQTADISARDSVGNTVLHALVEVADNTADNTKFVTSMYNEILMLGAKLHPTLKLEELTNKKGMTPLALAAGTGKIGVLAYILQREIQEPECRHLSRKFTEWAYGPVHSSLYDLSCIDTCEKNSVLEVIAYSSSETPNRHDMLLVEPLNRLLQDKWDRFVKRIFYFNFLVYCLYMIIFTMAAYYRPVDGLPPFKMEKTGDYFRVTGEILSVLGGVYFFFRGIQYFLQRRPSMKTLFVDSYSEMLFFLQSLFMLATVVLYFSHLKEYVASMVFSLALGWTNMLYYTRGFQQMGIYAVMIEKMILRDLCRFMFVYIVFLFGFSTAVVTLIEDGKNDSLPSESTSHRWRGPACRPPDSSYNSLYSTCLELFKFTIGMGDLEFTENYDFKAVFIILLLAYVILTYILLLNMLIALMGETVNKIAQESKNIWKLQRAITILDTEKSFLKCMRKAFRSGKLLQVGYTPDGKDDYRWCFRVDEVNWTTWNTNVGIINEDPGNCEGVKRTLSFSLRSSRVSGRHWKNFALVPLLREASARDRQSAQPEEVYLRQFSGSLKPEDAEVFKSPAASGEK
Experimental: Three samples of cis- and/or trans-4-tert-butyl cyclohexanol were assessed: 1) 99% trans-isomer, 2) an isomeric mixture enriched in the cis-isomer (59% cis, 41% trans) and 3) 99% cis-isomer.
Calciumassay based on fluorescent dye Fluo-4-AM
Negative Control: KH-buffer (solvent)
Positive Control: lonomycin (generell calcium induction)
Positive Control Capsaicin (natural agonist of TRPV1)
One day prior to performing the assay, HEK293 cells stably overexpressing recombinant human TRPV1 were plated onto black-walled assay plates, at a density of 45,000 cells per well. Using the FLEX Station system the change of the cellular calcium concentration (calcium influx) induced by TRPV1 activation was monitored using the calcium sensitive fluorescent dye fluo-4 (494 nm/516 nm (exitation/emission)). The pharmacological TRPV1 antagonist Ruthenium Red (1 μM) was used as positive control [J. Biol. Chem. 2004, 279 (34): 35741-8]. The dye-loaded stable cells in plates were placed into the fluorescence microtiter plate reader to monitor fluorescence (excitation 488 nm, emission 520 nm) change after the addition of 50 μl assay buffer (118 mM NaCl; 4.7 mM KCl; 1.2 mM MgSO4; 1.2 mM KH2PO4; 4.2 mM NaHCO3; 1.3 mM CaCl2; 10 mM HEPES (N-(2-hydroxyethyl)-piperazine-N′-2-ethanesulfonic acid) (pH: 7.4)) supplemented with an antagonist. Calcium mobilization was quantified as the change of peak fluorescence (ΔF) over the baseline level (F). The analysis was done with the software of the microtiter plate reader (FLEX Station). Potential TRPV1 antagonists were tested at an effective range of 0.5-50 μM. The test compounds were either applied in parallel to 30 nM capsaicin or 10 min prior to the agonist. TRPV1 antagonists were tested for their antagonistic activity in the presence of 30 nM capsaicin, which is the EC80 effective capsaicin concentration leading to 80% of the maximum capsaicin dependent TRPV1 activation.
Antagonistic efficacy of the isomers of 4-tert-butyl cyclohexanol on transient receptor potential ion channel 1 in cell based fluorescent analysis.
The three samples were tested for TRPV1 antagonism at parallel application with capsaicin as agonist.
TRPV1 antagonist in vitro at incubation prior to capsaicin: cis-4-tert-butyl cyclohexanol and trans-4-tert-butyl cyclohexanol were applied to HEK293 cells 10 min before capsaicin treatment.
We therefore additionally tested the pure cis- and trans-isomers of 4-tert-butyl cyclohexanol respectively in a pre-incubation mode with application of the respective isomer 10 min before addition of capsaicin.

[1] = system: volunteers who were sensitive to capsaicin; assay: In vivo testing: capsaicin-induced stinging on the cheek, O/W-emulsion versus placebo; parameters: species or system human; details: O/W-emulsion with 1 wt. % applied 60 s after 31.6 ppm capsaicin on cheek; evaluated 5 minutes later; 9 volunteers
Experimental: A study was performed with 9 volunteers who were sensitive to capsaicin. […] After 60 seconds all participants sensed a pronounced stinging effect. Then, an O/W-emulsion with 1 wt. % racemic trans-4-tert-butyl cyclohexanol (purity >99 wt. %) was applied on one cheek and the placebo O/W-emulsion on the other cheek (blinded samples).

[2] = system: volunteers who were sensitive to capsaicin; assay: Clinical study: stinging and burning at the nasolabial fold, O/W-emulsion with capsaicin with or without active; format: in vivo, human; details: O/W-emulsion with 31.6 ppm capsaicin and 1 wt. % active on nasolabial fold; evaluated 3 minutes later; 20 volunteers
Experimental: A study was performed with 20 volunteers who were sensitive to capsaicin. […] On day 1 sample c2 was assessed versus control. On day 2 sample c1 was assessed versus control. The stinging and burning effects were evaluted 3 minutes later on the same scale as in Example 1.2.

SMILES | EC80 effective capsaicin concentration (80% of maximum capsaicin dependent TRPV1 activation) (recombinant human TRPV1; agonist, HEK293 cells overexpressing human TRPV1) [µM] | TRPV1 antagonism (result in words), pre-incubation mode (recombinant human TRPV1) | TRPV1 antagonism (result in words) (recombinant human TRPV1) | IC50 (recombinant human TRPV1; parallel application with 30 nM capsaicin as agonist, HEK293 cells overexpressing human TRPV1) [µM] | average rating of reduction of stinging effect on scale 0 (no effect) to 4 (completely suppressed) [1] | average rating of inhibition/reduction of stinging and burning on scale 0 to 4 [2]
COc1cc(CNC(=O)CCCC/C=C/C(C)C)ccc1O [capsaicin, reference compound] | 0.03 |  |  |  |  | 
CC(C)(C)[C@H]1CC[C@@H](O)CC1 [cis-4-tert-butyl cyclohexanol, reference compound] |  | not active | inactive |  |  | 
CC(C)(C)[C@H]1CC[C@H](O)CC1 [trans-4-tert-butyl cyclohexanol] |  | strong activity | significantly more active | 34.1 | 3.10 | 2.95
